Experimental data taken from patent publication US20080287549A1, “METHODS AND MATERIALS FOR CONTROLLING RODENT POPULATIONS” (priority 2007, published 2008).

What was measured:
FSH, LH, testosterone = conditions: cited from earlier work
Serum testosterone = Serum testosterone in male rats after 7 days of treatment (direct RIA); assay type: in vivo; conditions: 7 consecutive days; for Effect on serum testosterone levels compared to the control group: 0.2-20 mg/kg; for Average Decrease in Serum Testosterone Level (%): pre- vs post-treatment
Procedure: (§1) Male rats were given increasing doses (control=0 mg/kg, low=0.2 mg/kg, medium=2 mg/kg and high=20 mg/kg) of clomiphene, trans-clomiphene or cis-clomiphene for 7 consecutive days. Treatment was followed by a 7-day washout period. Serum testosterone levels and body weight were tested pre-treatment and post-treatment. Serum testosterone levels were analyzed by direct radioimmunoassay (RIA).
(§2) There were significant and unexpected decreases in serum testosterone and body weight among all treatment groups. […] There was a significant loss in both body weight and total serum testosterone with clomiphene that was dose-dependent.

[1] = Body weight in male rats after 7 days of treatment; assay type: in vivo; conditions: 7 consecutive days; for Effect on body weight compared to the control group: 0.2-20 mg/kg; for Average Loss of Body Weight: pre- vs post-treatment
Procedure: as §1, §2

[2] = cited from earlier work
[3] = Ernst et al.; cited from earlier work
[4] = Long-term low-dose study: mean body weight in male and female rats; assay type: in vivo
Procedure: (§3) Twenty-eight weeks of a two-year study of the effects of low dosages of trans-clomiphene (0 mg/kg/day (control), 0.0125 mg/kg/day, 0.025 mg/kg/day and 0.05 mg/kg/day) on mean body weight and mean food consumption in age-matched male and female rats has been completed. For each group, n=60. Losses in body weight and decreases in food consumption in both male and female treatment groups (compared to control groups) have been observed in every treatment group. As the study has progressed, the losses in body weight and decreases in food consumption have become more pronounced. See Table 2 (M=male; F=female; Mean Body weight is in grams; Mean Food consumption is in grams/animal/day; and dosages are of trans-clomiphene in mg/kg/day).

[5] = Long-term low-dose study: mean food consumption in male and female rats; assay type: in vivo
Procedure: as §3

[6] = female rats, 0.0125 mg/kg/day, Week 2
[7] = female rats, 0.0125 mg/kg/day, Week 6
[8] = female rats, 0.0125 mg/kg/day, Week 10
[9] = female rats, 0.0125 mg/kg/day, Week 14
[10] = female rats, 0.0125 mg/kg/day, Week 18
[11] = female rats, 0.0125 mg/kg/day, Week 22
[12] = female rats, 0.0125 mg/kg/day, Week 26
[13] = female rats, 0.0125 mg/kg/day, Week 28
[14] = female rats, 0.025 mg/kg/day, Week 2
[15] = female rats, 0.025 mg/kg/day, Week 6
[16] = female rats, 0.025 mg/kg/day, Week 10
[17] = female rats, 0.025 mg/kg/day, Week 14
[18] = female rats, 0.025 mg/kg/day, Week 18
[19] = female rats, 0.025 mg/kg/day, Week 22
[20] = female rats, 0.025 mg/kg/day, Week 26
[21] = female rats, 0.025 mg/kg/day, Week 28
[22] = female rats, 0.05 mg/kg/day, Week 2
[23] = female rats, 0.05 mg/kg/day, Week 6
[24] = female rats, 0.05 mg/kg/day, Week 10
[25] = female rats, 0.05 mg/kg/day, Week 14
[26] = female rats, 0.05 mg/kg/day, Week 18
[27] = female rats, 0.05 mg/kg/day, Week 22
[28] = female rats, 0.05 mg/kg/day, Week 26
[29] = female rats, 0.05 mg/kg/day, Week 28
[30] = male rats, 0.0125 mg/kg/day, Week 2
[31] = male rats, 0.0125 mg/kg/day, Week 6
[32] = male rats, 0.0125 mg/kg/day, Week 10
[33] = male rats, 0.0125 mg/kg/day, Week 14
[34] = male rats, 0.0125 mg/kg/day, Week 18
[35] = male rats, 0.0125 mg/kg/day, Week 22
[36] = male rats, 0.0125 mg/kg/day, Week 26
[37] = male rats, 0.0125 mg/kg/day, Week 28
[38] = male rats, 0.025 mg/kg/day, Week 2
[39] = male rats, 0.025 mg/kg/day, Week 6
[40] = male rats, 0.025 mg/kg/day, Week 10
[41] = male rats, 0.025 mg/kg/day, Week 14
[42] = male rats, 0.025 mg/kg/day, Week 18
[43] = male rats, 0.025 mg/kg/day, Week 22
[44] = male rats, 0.025 mg/kg/day, Week 26
[45] = male rats, 0.025 mg/kg/day, Week 28
[46] = male rats, 0.05 mg/kg/day, Week 2
[47] = male rats, 0.05 mg/kg/day, Week 6
[48] = male rats, 0.05 mg/kg/day, Week 10
[49] = male rats, 0.05 mg/kg/day, Week 14
[50] = male rats, 0.05 mg/kg/day, Week 18
[51] = male rats, 0.05 mg/kg/day, Week 22
[52] = male rats, 0.05 mg/kg/day, Week 26
[53] = male rats, 0.05 mg/kg/day, Week 28

CCN(CC)CCOc1ccc(C(=C(Cl)c2ccccc2)c2ccccc2)cc1 [Clomiphene, clomiphene]
LH, FSH, and testosterone (FSH, LH, testosterone; after 2 months of treatment (Guay et al.)): increase
free and total testosterone (FSH, LH, testosterone; men after treatment (Tenover et al.)): increases
FSH, LH (FSH, LH, testosterone; young and old men after treatment (Tenover et al.)): increases
Effect on serum testosterone levels compared to the control group (Serum testosterone): significantly and statistically lowered serum testosterone levels
Average Decrease in Serum Testosterone Level (%) (Serum testosterone; high=20 mg/kg): 89.7%
Average Decrease in Serum Testosterone Level (%) (Serum testosterone; low=0.2 mg/kg): 65.2%
Average Decrease in Serum Testosterone Level (%) (Serum testosterone; medium=2 mg/kg): 83.5%
Effect on body weight compared to the control group [1]: caused a loss in body weight
Average Loss of Body Weight ([1]; high=20 mg/kg): 69 g
Average Loss of Body Weight ([1]; low=0.2 mg/kg): 24 g
Average Loss of Body Weight ([1]; medium=2 mg/kg): 41 g

CCN(CC)CCOc1ccc(/C(=C(/Cl)c2ccccc2)c2ccccc2)cc1 [Cis-clomiphene, cis-clomiphene]
time for which significant blood level is detectable ([2]; following a single dose of clomiphene citrate): in excess of one month
in vivo clearance [2]: clears slowly
estrogenic / antiestrogenic activity [3]: more potent and more estrogenic form
Effect on serum testosterone levels compared to the control group (Serum testosterone): significantly and statistically lowered serum testosterone levels
Average Decrease in Serum Testosterone Level (%) (Serum testosterone; low=0.2 mg/kg): 68.1%
Average Decrease in Serum Testosterone Level (%) (Serum testosterone; medium=2 mg/kg): 99.3%
Effect on body weight compared to the control group [1]: caused a loss in body weight
Average Loss of Body Weight ([1]; high=20 mg/kg): 75 g
Average Loss of Body Weight ([1]; low=0.2 mg/kg): 32 g
Average Loss of Body Weight ([1]; medium=2 mg/kg): 54 g

CCN(CC)CCOc1ccc(/C(=C(\Cl)c2ccccc2)c2ccccc2)cc1 [Trans-clomiphene, trans-clomiphene]
in vivo clearance [2]: rapidly cleared
Mean Body weight [4, 6]: 225.1 grams
Mean Body weight [4, 7]: 269.0 grams
Mean Body weight [4, 8]: 280.3 grams
Mean Body weight [4, 9]: 291.8 grams
Mean Body weight [4, 10]: 300.8 grams
Mean Body weight [4, 11]: 309.0 grams
Mean Body weight [4, 12]: 318.7 grams
Mean Body weight [4, 13]: 318.4 grams
Mean Body weight [4, 14]: 220.4 grams
Mean Body weight [4, 15]: 257.3 grams
Mean Body weight [4, 16]: 271.8 grams
Mean Body weight [4, 17]: 281.4 grams
Mean Body weight [4, 18]: 286.9 grams
Mean Body weight [4, 19]: 294.9 grams
Mean Body weight [4, 20]: 305.5 grams
Mean Body weight [4, 21]: 304.4 grams
Mean Body weight [4, 22]: 214.4 grams
Mean Body weight [4, 23]: 245.1 grams
Mean Body weight [4, 24]: 260.3 grams
Mean Body weight [4, 25]: 272.3 grams
Mean Body weight [4, 26]: 278.9 grams
Mean Body weight [4, 27]: 287.7 grams
Mean Body weight [4, 28]: 296.9 grams
Mean Body weight [4, 29]: 298.3 grams
Mean Body weight [4, 30]: 355.5 grams
Mean Body weight [4, 31]: 467.0 grams
Mean Body weight [4, 32]: 519.0 grams
Mean Body weight [4, 33]: 552.1 grams
Mean Body weight [4, 34]: 572.5 grams
Mean Body weight [4, 35]: 597.8 grams
Mean Body weight [4, 36]: 619.6 grams
Mean Body weight [4, 37]: 620.2 grams
Mean Body weight [4, 38]: 347.4 grams
Mean Body weight [4, 39]: 447.8 grams
Mean Body weight [4, 40]: 498.0 grams
Mean Body weight [4, 41]: 527.8 grams
Mean Body weight [4, 42]: 543.3 grams
Mean Body weight [4, 43]: 566.3 grams
Mean Body weight [4, 44]: 590.0 grams
Mean Body weight [4, 45]: 594.2 grams
Mean Body weight [4, 46]: 335.2 grams
Mean Body weight [4, 47]: 414.1 grams
Mean Body weight [4, 48]: 451.7 grams
Mean Body weight [4, 49]: 480.5 grams
Mean Body weight [4, 50]: 496.9 grams
Mean Body weight [4, 51]: 518.8 grams
Mean Body weight [4, 52]: 536.8 grams
Mean Body weight [4, 53]: 542.9 grams
estrogenic / antiestrogenic activity [3]: antiestrogenic
Effect on serum testosterone levels compared to the control group (Serum testosterone): significantly and statistically lowered serum testosterone levels
Average Decrease in Serum Testosterone Level (%) (Serum testosterone; high=20 mg/kg): 73%
Average Decrease in Serum Testosterone Level (%) (Serum testosterone; low=0.2 mg/kg): 71.7%
Average Decrease in Serum Testosterone Level (%) (Serum testosterone; medium=2 mg/kg): 68.3%
Mean Food consumption [5, 6]: 17.1 grams/animal/day
Mean Food consumption [5, 7]: 17.4 grams/animal/day
Mean Food consumption [5, 8]: 17.5 grams/animal/day
Mean Food consumption [5, 9]: 20.0 grams/animal/day
Mean Food consumption [5, 10]: 17.5 grams/animal/day
Mean Food consumption [5, 11]: 17.8 grams/animal/day
Mean Food consumption [5, 12]: 16.9 grams/animal/day
Mean Food consumption [5, 13]: 16.4 grams/animal/day
Mean Food consumption [5, 14]: 17.3 grams/animal/day
Mean Food consumption [5, 15]: 16.7 grams/animal/day
Mean Food consumption [5, 16]: 17.8 grams/animal/day
Mean Food consumption [5, 17]: 18.2 grams/animal/day
Mean Food consumption [5, 18]: 16.1 grams/animal/day
Mean Food consumption [5, 19]: 17.0 grams/animal/day
Mean Food consumption [5, 20]: 16.3 grams/animal/day
Mean Food consumption [5, 21]: 15.4 grams/animal/day
Mean Food consumption [5, 22]: 16.0 grams/animal/day
Mean Food consumption [5, 23]: 15.8 grams/animal/day
Mean Food consumption [5, 24]: 17.4 grams/animal/day
Mean Food consumption [5, 25]: 19.0 grams/animal/day
Mean Food consumption [5, 26]: 16.4 grams/animal/day
Mean Food consumption [5, 27]: 17.5 grams/animal/day
Mean Food consumption [5, 28]: 16.3 grams/animal/day
Mean Food consumption [5, 29]: 15.3 grams/animal/day
hypophagic effects ([5]; male and female rats, 0.0125-0.05 mg/kg/day, twenty-eight weeks): observed even at extremely low concentrations
Mean Food consumption [5, 30]: 23.8 grams/animal/day
Mean Food consumption [5, 31]: 25.1 grams/animal/day
Mean Food consumption [5, 32]: 26.6 grams/animal/day
Mean Food consumption [5, 33]: 26.5 grams/animal/day
Mean Food consumption [5, 34]: 24.3 grams/animal/day
Mean Food consumption [5, 35]: 25.1 grams/animal/day
Mean Food consumption [5, 36]: 23.1 grams/animal/day
Mean Food consumption [5, 37]: 23.6 grams/animal/day
Mean Food consumption [5, 38]: 24.3 grams/animal/day
Mean Food consumption [5, 39]: 23.8 grams/animal/day
Mean Food consumption [5, 40]: 26.9 grams/animal/day
Mean Food consumption [5, 41]: 25.4 grams/animal/day
Mean Food consumption [5, 42]: 23.6 grams/animal/day
Mean Food consumption [5, 43]: 24.0 grams/animal/day
Mean Food consumption [5, 44]: 23.4 grams/animal/day
Mean Food consumption [5, 45]: 22.6 grams/animal/day
Mean Food consumption [5, 46]: 22.0 grams/animal/day
Mean Food consumption [5, 47]: 22.5 grams/animal/day
Mean Food consumption [5, 48]: 23.5 grams/animal/day
Mean Food consumption [5, 49]: 25.9 grams/animal/day
Mean Food consumption [5, 50]: 22.6 grams/animal/day
Mean Food consumption [5, 51]: 23.1 grams/animal/day
Mean Food consumption [5, 52]: 22.4 grams/animal/day
Mean Food consumption [5, 53]: 22.0 grams/animal/day
Effect on body weight compared to the control group [1]: caused a loss in body weight
Average Loss of Body Weight ([1]; high=20 mg/kg): 35 g
Average Loss of Body Weight ([1]; low=0.2 mg/kg): 34 g
Average Loss of Body Weight ([1]; medium=2 mg/kg): 40 g
